Assay results as given in paper PMC8151276, “An Integrated Approach toward NanoBRET Tracers for Analysis of GPCR Ligand Engagement” (Molecules, 2021).

Assays:
[1] = biological target: T1, ACKR3 (Homo sapiens, UniProt P25106); test: NanoBRET screen HiBiT-ACKR3 in HEK293; type: binding
T1 construct: purchased Promega (in-house HiBiT-GPCR construct library, NanoBRET)
Experimental: (§1) Each tracer candidate was screened across the entire library of HiBiT-GPCR constructs using NanoBRET as the detection modality. As depicted in Figure 4A, the specificity of interactions was evaluated through decrease in BRET due to competitive displacement of a bound tracer by excess parental compound. Each tracer was analyzed for binding to each HiBiT-GPCR fusion in the absence and in the presence of competing parental compound. Briefly, HEK293 cells were transfected with HiBiT-GPCR constructs diluted into promoterless DNA to reduce expression and maximize translocation to the cell surface. Each tracer candidate was then screened at concentrations of 1 μM and 0.1 μM across cells expressing these fusions. Cells were treated for 1.5 h with tracer either alone or in the presence of 20 μM competing parental compound (i.e., control). BRET was measured upon addition of purified LgBiT and subsequent complementation with HiBiT genetically fused to a GPCR. The specificity of interactions was assessed through a decrease in BRET signal due to competitive displacement of the bound tracer. To further gauge the robustness of these interactions, the fold response over the control (i.e., BRETtracer/BRETcontrol) was calculated. We chose a 1.5-fold response, which translates to ≥7-fold signal over noise as the minimal threshold required to score an interaction as positive. […]. Below we highlight the screening results obtained for our exemplary fluorescent tracers based on Clozapine, Amitriptyline and AZD1283.
(§2) HiBiT-GPCR DNA constructs were diluted in 10 mM Tris pH 8 to a final concentration of 0.01 μg/μL, arrayed in 96-well plates and stored at −20 °C. For transfection, HEK293 cells were suspended in Opti-MEM (without phenol red) supplemented with 2% fetal bovine serum (Seradigm) and 100 units/mL penicillin–streptomycin (Gibco) at a final concentration of 220,000 cells/mL and dispensed into white 96-well plates at 90 μL/well. Subsequent transfections and screens were carried using an Agilent Bravo Automated Liquid Handling Platform. First, the 96-well HiBiT DNA arrays were diluted 25-fold in Opti-MEM (without serum or phenol red) to a final concentration of 0.0004 μg/μL and 20 μL of the diluted DNAs were transferred into new 96-well plates. Next, promoterless carrier DNA (1 μg/μL) was diluted 25-fold (0.04 μg/μL) and then dispensed into the diluted arrays at 20 μL/well. Following brief mixing, Viafect transfection reagent (Promega) diluted 16-fold into Opti-MEM was dispensed into the plates at 40 μL/well. After mixing by pipetting, plates were incubated for 10 min on the pipetting station deck. The DNA-transfection reagent complexes were then added to plates containing cells. To facilitate the screen, 10 μL of DNA-transfection reagent complexes were added in duplicates to the top 4 and bottom 4 rows, resulting in two identical 48-well arrays per plate. Plates with transfected cells were incubated for 18–20 h at 37 °C/5% CO2. A screen of each tracer across the entire library using two different concentrations requires duplicate plates of transfected cells. Depending on the number of tracers being screened, transfections can be scaled up using the same ratios. The next day, for each tracer, four 20× screening solutions in tracer dilution buffer (Promega) were prepared: two duplicates at final concentration of 20 μM and two duplicates at a final concentration of 2 μM. A competing unmodified compound was added to one of each duplicate at a final concentration of 400 μM. The four resulting solutions were diluted 4-fold in Opti-MEM without serum or phenol red to generate 5× solutions (5 µM and 0.5 µM tracer +/− 100 μM competing compound). To screen the library, a BioTek MultiFlo FX liquid dispenser was used to dispense 22.5 µL of tracer solution to the top 4 rows and 22.5 µL tracer + competing compound solution to the 4 bottom rows. Plates were briefly mixed on an orbital shaker and incubated for 1.5 h at room temperature. […]

[2] = biological target: T2, FZD1 (Homo sapiens, UniProt Q9UP38); test: NanoBRET screen HiBiT-FZD1 in HEK293; type: binding
T2 construct: purchased Promega (in-house HiBiT-GPCR construct library, NanoBRET)
T2 sequence (Q9UP38 70-647): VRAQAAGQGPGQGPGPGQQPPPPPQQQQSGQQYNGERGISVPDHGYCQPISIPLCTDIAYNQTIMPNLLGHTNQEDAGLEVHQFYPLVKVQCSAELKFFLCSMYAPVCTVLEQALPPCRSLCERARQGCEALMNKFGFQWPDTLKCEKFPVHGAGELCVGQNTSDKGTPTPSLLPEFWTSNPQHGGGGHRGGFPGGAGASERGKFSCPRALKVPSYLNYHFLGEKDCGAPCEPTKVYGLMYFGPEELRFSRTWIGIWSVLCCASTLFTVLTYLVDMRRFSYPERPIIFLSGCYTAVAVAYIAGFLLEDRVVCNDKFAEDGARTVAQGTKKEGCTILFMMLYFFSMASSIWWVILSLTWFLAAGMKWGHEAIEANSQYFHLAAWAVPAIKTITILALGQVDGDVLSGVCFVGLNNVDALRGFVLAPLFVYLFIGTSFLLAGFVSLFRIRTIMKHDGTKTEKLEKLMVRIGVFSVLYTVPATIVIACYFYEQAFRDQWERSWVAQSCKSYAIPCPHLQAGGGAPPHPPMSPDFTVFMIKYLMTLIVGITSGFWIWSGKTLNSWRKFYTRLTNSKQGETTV
Experimental: as §1, §2

T1 sequence (P25106 whole entry): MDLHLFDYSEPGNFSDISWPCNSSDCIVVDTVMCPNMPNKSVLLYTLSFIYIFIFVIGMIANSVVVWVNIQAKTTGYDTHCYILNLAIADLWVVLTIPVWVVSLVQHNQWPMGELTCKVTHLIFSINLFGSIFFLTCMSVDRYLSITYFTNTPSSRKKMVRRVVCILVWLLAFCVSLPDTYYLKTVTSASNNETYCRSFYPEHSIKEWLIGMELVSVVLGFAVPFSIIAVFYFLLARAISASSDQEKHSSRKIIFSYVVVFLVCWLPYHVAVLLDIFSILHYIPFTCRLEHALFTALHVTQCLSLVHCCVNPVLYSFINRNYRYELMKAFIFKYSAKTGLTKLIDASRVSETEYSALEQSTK

COc1ccccc1N1CCN(CCCCN2C(=O)c3ccc(CNC(=O)CCOCCOCCOCCOCCNC(=O)CCc4ccc5n4[B-](F)(F)[N+]4=C(c6ccc[nH]6)C=CC4=C5)cc3C2=O)CC1 [NAN-190-2-NB590]
NanoBRET Fold Response ([1]; ACKR3, tracer 0.1μM): 1.09 | NanoBRET Fold Response ([2]; FZD1, tracer 0.1μM): 0.99 | NanoBRET Fold Response ([2]; FZD1, tracer 1μM): 1.06

O=C(CCc1ccc2n1[B-](F)(F)[N+]1=C(c3ccc[nH]3)C=CC1=C2)NCCOCCOCCNC(=O)OCCOCCN1CCN(C2=Nc3ccccc3Sc3ccccc32)CC1 [Quetiapine-a-2-NB590]
NanoBRET Fold Response ([1]; ACKR3, tracer 0.1μM): 0.96 | NanoBRET Fold Response ([1]; ACKR3, tracer 1μM): 0.96 | NanoBRET Fold Response ([2]; FZD1, tracer 0.1μM): 1.14 | NanoBRET Fold Response ([2]; FZD1, tracer 1μM): 0.96

O=C(CCOCCOCCOCCOCCNC(=O)CCc1ccc2n1[B-](F)(F)[N+]1=C(c3ccc[nH]3)C=CC1=C2)NCCCN1CCN(C2=Nc3cc(Cl)ccc3Nc3ccccc32)CC1 [Clozapine-a-2-NB590]
NanoBRET Fold Response ([1]; ACKR3, 0.1μM tracer): 1.05 | NanoBRET Fold Response ([1]; ACKR3, 1μM tracer): 1.06 | NanoBRET Fold Response ([2]; FZD1, 0.1μM tracer): 0.98 | NanoBRET Fold Response ([2]; FZD1, 1μM tracer): 0.93

N#CN=C(NCCCOc1cccc(CN2CCCCC2)c1)NCCNC(=O)CCOCCOCCOCCOCCNC(=O)CCc1ccc2n1[B-](F)(F)[N+]1=C(c3ccc[nH]3)C=CC1=C2 [Aminopotentidine-2-NB590]
NanoBRET Fold Response ([1]; ACKR3, tracer 0.1μM): 0.99 | NanoBRET Fold Response ([1]; ACKR3, tracer 1μM): 1.08 | NanoBRET Fold Response ([2]; FZD1, tracer 0.1μM): 1.07 | NanoBRET Fold Response ([2]; FZD1, tracer 1μM): 1.12

O=C(CCc1ccc2n1[B-](F)(F)[N+]1=C(c3ccc[nH]3)C=CC1=C2)NCc1ccc(C(=O)NCCOCCOCCNCC(O)COc2cccc3ccccc23)cc1 (centres unmarked) [Propranolol-3-NB590]
NanoBRET Fold Response ([1]; ACKR3, 0.1μM): 1.04 | NanoBRET Fold Response ([1]; ACKR3, 1μM): 1.08 | NanoBRET Fold Response ([2]; FZD1, 0.1μM): 0.97 | NanoBRET Fold Response ([2]; FZD1, 1μM): 0.98

O=C(CCc1ccc2n1[B-](F)(F)[N+]1=C(c3ccc[nH]3)C=CC1=C2)NCc1ccc(C(=O)NCCOCCC(=O)N[C@@H]2CC[C@@]3(O)[C@H]4Cc5ccc(O)c6c5[C@@]3(CCN4CC3CC3)[C@H]2O6)cc1 [Naltrexone-3-NB590]
NanoBRET Fold Response ([1]; ACKR3, tracer 0.1μM): 1.11 | NanoBRET Fold Response ([1]; ACKR3, tracer 1μM): 1.07 | NanoBRET Fold Response ([2]; FZD1, tracer 0.1μM): 1.07 | NanoBRET Fold Response ([2]; FZD1, tracer 1μM): 1.05

COc1ccccc1N1CCN(CCCCN2C(=O)c3ccc(CNC(=O)CCOCCNC(=O)c4ccc(CNC(=O)CCc5ccc6n5[B-](F)(F)[N+]5=C(c7ccc[nH]7)C=CC5=C6)cc4)cc3C2=O)CC1 [NAN-190-3-NB590]
NanoBRET Fold Response ([1]; ACKR3, tracer 0.1μM): 0.77 | NanoBRET Fold Response ([1]; ACKR3, tracer 1μM): 1.10 | NanoBRET Fold Response ([2]; FZD1, tracer 0.1μM): 0.83 | NanoBRET Fold Response ([2]; FZD1, tracer 1μM): 1.01

Cc1cc2c(s1)Nc1ccccc1N=C2N1CCN(CCCNC(=O)CCOCCOCCOCCOCCNC(=O)CCc2ccc3n2[B-](F)(F)[N+]2=C(c4ccc[nH]4)C=CC2=C3)CC1 [Olanzapine-a-2-NB590]
NanoBRET Fold Response ([1]; ACKR3, tracer 0.1μM): 0.94 | NanoBRET Fold Response ([1]; ACKR3, tracer 1μM): 0.83 | NanoBRET Fold Response ([2]; FZD1, tracer 0.1μM): 0.95 | NanoBRET Fold Response ([2]; FZD1, tracer 1μM): 1.04

CCCn1c(=O)c2[nH]c(-c3ccc(OCC(=O)NCCNC(=O)CCOCCNC(=O)c4ccc(CNC(=O)CCc5ccc6n5[B-](F)(F)[N+]5=C(c7ccc[nH]7)C=CC5=C6)cc4)cc3)nc2n(CCC)c1=O [XAC-3-NB590]
NanoBRET Fold Response ([1]; ACKR3, tracer 0.1μM): 1.02 | NanoBRET Fold Response ([1]; ACKR3, tracer 1μM): 1.49 | NanoBRET Fold Response ([2]; FZD1, tracer 0.1μM): 0.78 | NanoBRET Fold Response ([2]; FZD1, tracer 1μM): 1.33

CN(CCC=C1c2ccccc2CCc2ccccc21)C(=O)CCOCCOCCOCCOCCNC(=O)CCc1ccc2n1[B-](F)(F)[N+]1=C(c3ccc[nH]3)C=CC1=C2 [Amitriptyline-e-2-NB590]
NanoBRET Fold Response ([1]; tracer at 1μM): 0.94 | NanoBRET Fold Response ([2]; tracer at 1μM): 0.98

COc1ccc2c(n1)c(CCNC(C)=O)cn2CCNC(=O)CCc1ccc2n1[B-](F)(F)[N+]1=C(c3ccc[nH]3)C=CC1=C2 [Azamelatonin-1-NB590]
NanoBRET Fold Response ([1]; 0.1μM tracer): 0.84 | NanoBRET Fold Response ([1]; 1μM tracer): 0.95 | NanoBRET Fold Response ([2]; 0.1μM tracer): 1.10 | NanoBRET Fold Response ([2]; 1μM tracer): 1.10
